Entries after “also recorded” stand apart in the source; their conditions may differ. Where two headings read alike, the source gives them in different places.
Experiments:
[1] = test system: GBP2; assay: Effect of unlabelled glucose analogues on binding of [14C]glucose to GBP2, equilibrium dialysis; parameters: species or system Agrobacterium radiobacter; conditions: for [14C]glucose bound GBP2: 0.5 nmol pure protein, 3 nmol [14C]glucose plus 120 nmol unlabelled analogue, 30 h, 4° C.; for Effect on binding of glucose to GBP2 (in words): competition with [14C]glucose in vitro
Method: (§1) The capacity of glucose analogues to reduce the extent of binding of D-[U-^14 C]glucose to pure proteins was determined by modifying the assay procedure as follows. One chamber of each cell contained 0.5 nmol pure protein in 0.3 ml bis-Tris, pH 6.8, and the other chamber was loaded with 0.3 ml of buffer containing 3 nmol D-[U-^14 C]glucose [85 mCi mmol^-1 (3.2 GBq mmol )] plus 120 nmol of an unlabelled glucose analogue. The quantity of [^14 C]glucose that bound to the proteins in the presence and absence of unlabelled glucose analogues was determined after 30 h incubation.

[2] = test system: GBP1; assay: Effect of unlabelled glucose analogues on binding of [14C]glucose to GBP1, equilibrium dialysis; parameters: species or system Agrobacterium radiobacter; conditions: for [14C]glucose bound GBP1: 0.5 nmol pure protein, 3 nmol [14C]glucose plus 120 nmol unlabelled analogue, 30 h, 4° C.; for Effect on binding of glucose to GBP1 (in words): competition with [14C]glucose in vitro
Method: as §1

[3] = test system: A. radiobacter strain AR9; assay: Effect of glucose analogues on [14C]glucose uptake by strain AR9 grown under glucose limitation; format: cell-based, Agrobacterium radiobacter; conditions: for activity at 10000 µM: Agrobacterium radiobacter, AR9, pH 7, unlabelled sugars 10 mM, [14C]glucose 250M, glucose-limited culture D = 0.045 h^-1, control rate 63 nmol min^-1 (mg dry wt)^-1
Method: (§2) Measurement of glucose uptake. […] Assays were carried out in an open-topped Rank oxygen electrode vessel containing 1 ml 20 mM HEPES/KOH buffer, pH 7.0, and 1 mg dry wt cells. The contents of the vessel were maintained at 30° C. and mixed continuously using a magnetic stirrer. […] Samples (50 ul) of the reaction mixture were withdrawn at 15 s intervals and the cells were collected on nitrocellulose filters of 0.45 uM pore size (2.5 cm dia.; Sartorius) by means of a manifold connected to a vacuum line. The filters were washed immediately using 3 ml 20 mM HEPES, pH 7.0, dried under an infra-red lamp and then immersed in 3 ml of Fisofluor 3 scintillant (Fisons Ltd.).

[4] = test system: A. radiobacter strain AR18; assay: Effect of glucose analogues on [14C]glucose uptake by strain AR18 grown under glucose limitation; format: cell-based, Agrobacterium radiobacter; conditions: for activity at 10000 µM: Agrobacterium radiobacter, AR18, pH 7, unlabelled sugars 10 mM, [14C]glucose 250M, glucose-limited culture D = 0.045 h^-1, control rate 72 nmol min^-1 (mg dry wt)^-1
Method: as §2

[5] = test system: whole cells of A. radiobacter; assay: [14C]glucose uptake by whole cells grown under glucose limitation; format: cell-based, Agrobacterium radiobacter NCIB 11883; conditions: for Effect on rate of [14C]glucose uptake by whole cells (in words): unlabelled analogue at 40:1 molar excess, glucose-limited cells; for Glucose uptake rate after pre-incubation with respiratory substrate (in words): 10 mM, pre-incubated before addition of [14C]glucose
Method: Organism and growth conditions. Agrobacterium radiobacter NCIB 11883 was grown at 30° C. in continuous culture (D=0.045 h^-1) under glucose limitation using a chemically defined medium (Linton et al., 1987) supplemented with glucose (4 gl^-1), ammonium sulfate (3 gl^-1) and nitrilotriacetic acid (0.142 gl^-1). The organism was grown in an LH Series 500 chemostat of 2 l working volume at a steady-state biomass density of 2.1 g dry wt 1^-1.
Measurement of glucose uptake. Rates of glucose uptake were determined by measuring the incorporation of D-[U-^14 C]glucose into whole cells over a period of 60 s. Assays were carried out in an open-topped Rank oxygen electrode vessel containing 1 ml 20 mM HEPES/KOH buffer, pH 7.0, and 1 mg dry wt cells. The contents of the vessel were maintained at 30° C. and mixed continuously using a magnetic stirrer. Assays were started by adding D-[U-^14 C]glucose [2 mCi mmol^-1 (74 MBq mmol^-1; 0.5 uCi (18.5 KBl)] to give a final concentration of 250 uM. Samples (50 ul) of the reaction mixture were withdrawn at 15 s intervals and the cells were collected on nitrocellulose filters of 0.45 uM pore size (2.5 cm dia.; Sartorius) by means of a manifold connected to a vacuum line. The filters were washed immediately using 3 ml 20 mM HEPES, pH 7.0, dried under an infra-red lamp and then immersed in 3 ml of Fisofluor 3 scintillant (Fisons Ltd.). The extent of incorporation of [^14 C]glucose into the cells was determined by counting the radioactivity on the filters using a Hewlett Packard Tri-Carb liquid scintillation counter (80-85% efficiency).
In order to measure glucose uptake rates at low concentrations of substrate (1-5 uM) the cell density was reduced to 0.01 mg ml^-1, the specific activity of the [^14 C]glucose was increased to 84 mCi mmol^-1 (3.2 Gbq mmol^-1) and the rate of incorporation of ^14 C-label into cells was measured over a period of 35 s.
The substrate specificity of the transport system was investigated by determining the extent to which unlabelled glucose analogues (10 mM) reduced the rate of uptake of [^14 C]glucose (250 uM). Cell suspensions were incubated with analogues for 5 s prior to addition of [^14 C]glucose.

[6] = test system: A. radiobacter strain AR18; assay: [14C]glucose uptake by strain AR18 grown under ammonia limitation; format: cell-based; conditions: Agrobacterium radiobacter, AR18, pH 7; ammonia-limited growth, forty-fold molar excess over [14C]glucose; read-out: Reduction of rate of glucose uptake by strain AR18
Method: (§4) Measurement of glucose uptake. Rates of glucose uptake were determined by measuring the incorporation of D-[U-^14 C]glucose into whole cells over a period of 60 s. Assays were carried out in an open-topped Rank oxygen electrode vessel containing 1 ml 20 mM HEPES/KOH buffer, pH 7.0, and 1 mg dry wt cells. The contents of the vessel were maintained at 30° C. and mixed continuously using a magnetic stirrer. Assays were started by adding D-[U-^14 C]glucose [2 mCi mmol^-1 (74 MBq mmol^-1 ; 0.5 uCi (18.5 KBl)] to give a final concentration of 250 uM. Samples (50 ul) of the reaction mixture were withdrawn at 15 s intervals and the cells were collected on nitrocellulose filters of 0.45 uM pore size (2.5 cm dia.; Sartorius) by means of a manifold connected to a vacuum line. The filters were washed immediately using 3 ml 20 mM HEPES, pH 7.0, dried under an infra-red lamp and then immersed in 3 ml of Fisofluor 3 scintillant (Fisons Ltd.). The extent of incorporation of [^14 C]glucose into the cells was determined by counting the radioactivity on the filters using a Hewlett Packard Tri-Carb liquid scintillation counter (80-85% efficiency). Glucose uptake rates were measured in triplicate for each batch of cells and the standard errors never exceeded 10% of the mean values. […]

[7] = test system: A. radiobacter strain AR9; assay: [14C]glucose uptake by strain AR9 grown under ammonia limitation; format: cell-based; conditions: Agrobacterium radiobacter, AR9, pH 7; ammonia-limited growth, forty-fold molar excess over [14C]glucose; read-out: Reduction of rate of glucose uptake by strain AR9
Method: as §4

[8] = biological target: GBP2; assay: Binding of [14C]glucose to pure GBP2, equilibrium dialysis, Scatchard analysis; parameters: species or system Agrobacterium radiobacter
Method: (§3) Determination of binding constants using equilibrium dialysis. This was carried out at 4° C. using an eight-cell rotating module (Hoefer Scientific Instruments, San Fransisco, Calif., U.S.A.). Each cell was divided into two chambers of 0.5 ml volume using a dialysis membrane (Mr cut-off=6-8000). Pure protein (0.5 nmol) was added to one chamber of each cell in 0.3 ml bis-Tris, pH 6.8. Each of the opposing chambers was loaded with 0.3 ml bis-Tris (0.3 ml) containing D-[U-^14 C]glucose [270 mCi mmol^-1 (10 GBq mmol^-1)], the concentration of which was varied over an appropriate range. The module was rotated at 10 rev min^-1 for 30 h (by which time equilibrium had been attained) and samples (50 ul) were taken in triplicate from each chamber and counted in 3 ml Fisofluor 2 (Fisons Ltd.). The data were analyzed according to the method of Scatchard (1949).

[9] = biological target: GBP1; assay: Binding of [14C]glucose to pure GBP1, equilibrium dialysis, Scatchard analysis; parameters: species or system Agrobacterium radiobacter
Method: as §3

[10] = test system: whole cells of A. radiobacter; assay: Capacity of whole cells to accumulate [14C]glucose; format: cell-based, Agrobacterium radiobacter NCIB 11883
Method: The capacity of A. radiobacter to accumulate glucose was determined by incubating cell suspensions (1 mg dry wt ml^-1) with D-[U-^14 C]glucose [84 mCi mmol^-1 (3.2 Gbq mmol^-1); 20M initial concentration). Samples (100 ul) of the suspension were withdrawn 10s after adding the glucose and the cells were collected on nitrocellulose filters (0.45 um pore size) using vacuum filtration. The filters were washed immediately using 3 ml buffer and immersed in 20 ml boiling water. Aqueous extracts prepared from four filters were pooled, lyophilized and the residue dissolved in 2 ml water. The glucose content of the cells was determined using liquid scintillation counting following separation of [^14 C]glucose from other labelled metabolites present in the extracts using paper chromatography. Samples of the filtrate plus washings were also counted in order to determine the extracellular concentration of glucose at the time of sampling.

[11] = test system: third protein (Mr 30500), BP3; assay: Binding of [14C]glucose to the third periplasmic protein (BP3), equilibrium dialysis; parameters: species or system Agrobacterium radiobacter
Method: as §3

[12] = glucose-limited culture, unlabelled sugar 10 mM

| Structure (SMILES) | [14C]glucose bound GBP2 [1] [% control value] | Effect on binding of glucose to GBP2 (in words) [1] | [14C]glucose bound GBP1 [2] [% control value] | Effect on binding of glucose to GBP1 (in words) [2] | activity at 10000 µM [3] [%] | activity at 10000 µM [4] [%] | further results |
| --- | --- | --- | --- | --- | --- | --- | --- |
| O=CC[C@@H](O)[C@H](O)[C@H](O)CO [2-deoxy-D-glucose] | 98 | did not affect | 96 | did not affect | 71 | 93 | Effect on binding of glucose to GBP2 (in words) ([1]; listed as 2-Deoxy-D-glucose): had no effect; Effect on binding of glucose to GBP1 (in words) ([2]; listed as 2-Deoxy-D-glucose): had no effect; Effect on rate of glucose uptake by strain AR9 (in words) [3, 12]: reduced the rate of glucose uptake to a relatively small extent; Effect on rate of glucose uptake by strain AR18 (in words) [4, 12]: reduced the rate of glucose uptake to a relatively small extent; Effect on rate of [14C]glucose uptake by whole cells (in words) [5]: none of these unlabelled analogues appreciably reduced; also recorded: failed to reduce significantly |
| CO[C@H]1[C@H](O)[C@@H](CO)OC(O)[C@@H]1O (stereo partly drawn) [3-O-methyl-D-glucose] | 103 | did not affect | 100 | did not affect | 99 | 111 | Effect on rate of [14C]glucose uptake by whole cells (in words) [5]: none of these unlabelled analogues appreciably reduced; also recorded: failed to reduce significantly |
| OC1O[C@H](CCl)[C@@H](O)[C@H](O)[C@H]1O (stereo partly drawn) [6-chloro-6-deoxy-D-glucose] | 60 | variably decreased; also recorded: significantly reduced | 0 | variably decreased; also recorded: significantly reduced | 33 | 8 | – |
| C[C@@H](O)[C@@H](O)[C@H](O)[C@@H](O)C=O [6-deoxy-D-glucose] | 0 | variably decreased; also recorded: significantly reduced | 51 | variably decreased; also recorded: significantly reduced | 11 | 27 | – |
| C[C@@H](O)[C@H](O)[C@H](O)[C@@H](O)C=O [D-fucose] | 99 | only effective with GBP1 | 31 | only effective with GBP1 | 68 | 18 | – |
| O=C[C@H](O)[C@@H](O)[C@@H](O)[C@H](O)CO [D-galactose] | 99 | – | 2 | – | 75 | 8 | inhibition at 10000 µM [6]: ~95%; Effect on binding of glucose to GBP2 (in words) ([1]; listed as D-Galactose): only effective with GBP1; inhibition at 10000 µM [7]: ~50%; Effect on binding of glucose to GBP1 (in words) ([2]; listed as D-Galactose): only effective with GBP1 |
| O=C[C@H](O)[C@@H](O)[C@H](O)[C@H](O)CO [D-glucose] | 4 | – | 4 | – | 4 | 4 | Kd ([8]; as printed in the summary, read-out: KD of D-glucose for GBP2 (summary)): 0.07 µM; Kd ([8]; equilibrium dialysis, 4° C., pH 6.8, read-out: KD of glucose for GBP2): 0.07 µM; Kd ([9]; as printed in the summary, read-out: KD of D-glucose for GBP1 (summary)): 0.23 µM; Kd ([9]; equilibrium dialysis, 4° C., pH 6.8, read-out: KD of glucose for GBP1): 0.23 µM; Accumulation ratio ([glucose]in/[glucose]out) [10]: > 2000; Accumulation ratio ([glucose]in/[glucose]out) ([10]; 10 s incubation, assuming an intracellular volume of 1-3 ul mg dry wt^-1): 2000-6000; Km ([5]; [14C]glucose varied over the range 1 M-1 mM, whole cells): < 1 µM; Binding of D-glucose to the third protein (Mr 30500) (in words) [11]: no binding ability |
| O=C[C@H](O)[C@@H](O)[C@H](O)CO [D-xylose] | 2 | significantly reduced | 72 | significantly reduced | – | 64 | – |
| N#CC(C#N)=NNc1ccc(OC(F)(F)F)cc1 [FCCP, carbonyl cyanide p-trifluoromethoxyphenylhydrazone] | – | – | – | – | – | – | Inhibition of glucose transport ([5]; at 20 M, added 10 s before glucose): approximately 95% |
| CO[C@H]1O[C@H](CO)[C@@H](O)[C@H](O)[C@H]1O [alpha-1-O-methyl-D-glucose] | 104 | did not affect | 99 | did not affect | 99 | 111 | Effect on rate of [14C]glucose uptake by whole cells (in words) [5]: none of these unlabelled analogues appreciably reduced; Effect on rate of [14C]glucose uptake by whole cells (in words) ([5]; listed as Alpha-1-O-methyl-D-glucose): failed to reduce significantly |
| CCO [ethanol] | – | – | – | – | – | – | Glucose uptake rate after pre-incubation with respiratory substrate (in words) [5]: did not increase |
| OCC(O)CO [glycerol] | – | – | – | – | – | – | Glucose uptake rate after pre-incubation with respiratory substrate (in words) [5]: did not increase |

Reference: patent US5125099A, “Obtaining heteropolysaccharide-producing microorganism and the microorganism agrobacterium radiobacter NCIB 40018” (Shell Internationale Research Maatschappij B.V., priority 1988, dated 1992)
